pIC50: −log10 of the molar value.
Legend:
U-87 MG = assay: Antiproliferative activity against human U87 cells after 48 hrs by MTT assay; type: functional, cell-based, U-87MG ATCC
MGC-803 = assay: Antiproliferative activity against human MGC803 cells after 48 hrs by MTT assay; type: functional, cell-based; conditions: MGC-803, 48 h
SGC-7901 [1] = assay: Antiproliferative activity against human SGC7901 cells after 48 hrs by MTT assay; type: functional, cell-based; conditions: SGC-7901, 48 h
SMMC-7721 = assay: Antiproliferative activity against human SMMC7721 cells after 48 hrs by MTT assay; type: functional, cell-based; conditions: SMMC-7721, 48 h
SGC-7901 [2] = assay: Induction of mitochondrial membrane depolarization in human SGC7901 cells assessed as cells with intact mitochondrial membrane potential after 48 hrs by JC-1 staining based flow cytometric analysis (reference value: 87.3%); type: functional
SGC-7901 [3] = assay: Induction of mitochondrial membrane depolarization in human SGC7901 cells assessed as cells with mitochondrial membrane potential loss after 48 hrs by JC-1 staining based flow cytometric analysis (reference value: 9.29%); type: functional

Compound	pIC50 (U-87 MG)	pIC50 (MGC-803)	pIC50 (SGC-7901 [1])	pIC50 (SMMC-7721)	Activity (SGC-7901 [2]) [%]	Activity (SGC-7901 [3]) [%]
COc1cc(OC)c2c(=O)c(OCCCOc3ccccc3/C=C/C(=O)/C=C/c3cccc([N+](=O)[O-])c3)c(-c3cc(OC)c(OC)c(OC)c3)oc2c1	5.10	5.24	5.27	5.04	–	–
COc1ccc(/C=C/C(=O)/C=C/c2ccc(Oc3cc(=O)oc4ccccc34)cc2)cc1OC	–	4.31	4.31	–	–	–
N#CC(C#N)=NNc1cccc(Cl)c1 [CARBONYL CYANIDE M-CHLOROPHENYLHYDRAZONE]	–	–	–	–	27.7	64.6
COc1cc(OC)c2c(=O)c(OCCCCOc3ccccc3/C=C/C(=O)/C=C/c3ccco3)c(-c3cc(OC)c(OC)c(OC)c3)oc2c1	4.97	5.10	5.05	5.07	–	–
COc1cc(OC)c2c(=O)c(OCCCOc3ccccc3/C=C/C(=O)/C=C/c3scnc3C)c(-c3cc(OC)c(OC)c(OC)c3)oc2c1	5.02	5.25	5.32	5.14	–	–
COc1cc(OC)c2c(=O)c(OCCCCOc3ccccc3/C=C/C(=O)/C=C/c3ccc(Cl)cc3)c(-c3cc(OC)c(OC)c(OC)c3)oc2c1	4.68	4.73	5.04	4.38	–	–
COc1cc(OC)c2c(=O)c(OCCCCOc3ccc(/C=C/C(=O)/C=C/c4ccccn4)cc3)c(-c3cc(OC)c(OC)c(OC)c3)oc2c1	5.33	5.71	5.62	5.77	–	–
COc1cc(OC)c2c(=O)c(OCCCOc3ccc(/C=C/C(=O)/C=C/c4scnc4C)cc3)c(-c3cc(OC)c(OC)c(OC)c3)oc2c1	4.39	4.50	4.31	4.46	–	–
COc1cc(OC)c2c(=O)c(OCCCCOc3ccc(/C=C/C(=O)/C=C/c4scnc4C)cc3)c(-c3cc(OC)c(OC)c(OC)c3)oc2c1	4.23	4.26	4.38	4.19	–	–
O=C(/C=C/c1ccc(Oc2cc(=O)oc3ccccc23)cc1)/C=C/c1ccccn1	4.29	4.71	4.60	4.45	–	–
COc1cc(OC)c2c(=O)c(OCCCCOc3ccccc3/C=C/C(=O)/C=C/c3cccs3)c(-c3cc(OC)c(OC)c(OC)c3)oc2c1	4.68	4.69	4.58	4.83	–	–
O=C(/C=C/c1ccc(Cl)cc1)/C=C/c1ccc(Oc2cc(=O)oc3ccccc23)cc1	–	4.26	4.32	–	–	–
O=C(/C=C/c1ccc(Oc2cc(=O)oc3ccccc23)cc1)/C=C/c1cccnc1	4.43	4.61	4.76	4.48	–	–
COc1cc(OC)c2c(=O)c(OCCCCOc3ccccc3/C=C/C(=O)/C=C/c3cccc([N+](=O)[O-])c3)c(-c3cc(OC)c(OC)c(OC)c3)oc2c1	5.00	5.30	5.39	5.14	–	–
COc1cccc2c1C(=O)c1c(O)c3c(c(O)c1C2=O)C[C@@](O)(C(=O)CO)C[C@@H]3O[C@H]1C[C@H](N)[C@H](O)[C@H](C)O1 [DOXORUBICIN]	6.32	6.40	6.06	6.14	–	–
